The subject of experiment [1] is Rattus norvegicus. As to the kind of experiment: Antihyperglycemic activity in po dosed STZ-diabetic rat assessed as insulin containing beta-cells by immunohistochemical study. The format is functional, organism-based.
In experiment [2] the test system is Rattus norvegicus. Briefly: Antihyperglycemic activity in STZ-diabetic rat assessed as improvement in beta cell granulation at 50 mg/kg, po after 45 days by histopathological study. The class given is functional, organism-based. Details: dose 50 mg/kg.
For experiment [3], the system named is Rattus norvegicus. As to the kind of experiment: Antihyperglycemic activity in STZ-diabetic rat assessed as dilated islet cells at 600 ug/kg, po after 45 days by histopathological study. The format is functional, organism-based.
Experiment [4] deals with Rattus norvegicus. As to the kind of experiment: Antihyperglycemic activity in po dosed STZ-diabetic rat assessed as lowering of fasting plasma glucose level after 45 days by colorimetry. The format is functional.
The subject of experiment [5] is Rattus norvegicus. Briefly: Antihyperglycemic activity in STZ-diabetic rat assessed as dilated islet cells at 12.5 mg/kg, po after 45 days by histopathological study. The format is functional, organism-based. Also noted: dose 12.5 mg/kg.
In experiment [6] the test system is Rattus norvegicus. As to the kind of experiment: Antihyperglycemic activity in STZ-diabetic rat assessed as hyperplastic islet cells at 600 mg/kg, po after 45 days by histopathological study. The format is functional, organism-based. Also noted: dose 600 mg/kg.
The subject of experiment [7] is Rattus norvegicus. Briefly: Antihyperglycemic activity in STZ-diabetic rat assessed as dilated islet cells at 25 mg/kg, po after 45 days by histopathological study. Details: dose 25 mg/kg. The class given is functional, organism-based.
In experiment [8] the test system is Rattus norvegicus. As to the kind of experiment: Antihyperglycemic activity in STZ-diabetic rat assessed as expansion of islet cells at 50 mg/kg, po after 45 days by histopathological study. The format is functional, organism-based. Also noted: dose 50 mg/kg.
Experiment [9] concerns Rattus norvegicus. As to the kind of experiment: Antihyperglycemic activity in STZ-diabetic rat assessed as expansion of islet cells at 25 mg/kg, po after 45 days by histopathological study. Details: dose 25 mg/kg. The class given is functional, organism-based.
Experiment [10] deals with Rattus norvegicus. Briefly: Antihyperglycemic activity in STZ-diabetic rat assessed as expansion of islet cells at 12.5 mg/kg, po after 45 days by histopathological study. Details: dose 12.5 mg/kg. The class given is functional, organism-based.
Experiment [11] relates to Rattus norvegicus. As to the kind of experiment: Antihyperglycemic activity in STZ-diabetic rat assessed as potentiation of insulin secretion from existing beta cells at 50 mg/kg, po after 45 days. The class given is functional, organism-based. Details: dose 50 mg/kg.
Experiment [12] deals with Rattus norvegicus. As to the kind of experiment: Antihyperglycemic activity in STZ-diabetic rat assessed as hyperplastic islet cells at 50 mg/kg, po after 45 days by histopathological study. The class given is functional, organism-based. Details: dose 50 mg/kg.

The source made the active and inactive calls. The calls are words filed in the database; no cut-off is given here.

Drawing on ChEMBL document CHEMBL1153951, “Partial regeneration of beta-cells in the islets of Langerhans by Nymphayol a sterol isolated from Nymphaea stellata (Willd.) flowers” (2009), this text covers Activity for one compound.

Take `CCCC[C@@H](C)[C@H]1CC[C@H]2[C@@H]3CC=C4C[C@@H](O)CC[C@]4(C)[C@H]3CC[C@]12C` [NYMPHAYOL]: the outcome in the experiment with Rattus norvegicus [1], in the experiment on Rattus norvegicus [2], in the experiment with Rattus norvegicus [5], in the experiment with Rattus norvegicus [10] and with Rattus norvegicus [11] was Active. For the same compound, the result with Rattus norvegicus [3], with Rattus norvegicus [6], with Rattus norvegicus [7], in the experiment on Rattus norvegicus [8], with Rattus norvegicus [9] and in the experiment on Rattus norvegicus [12] was inactive. In the experiment with Rattus norvegicus [4], the Activity was found to be 78.05%.
